# Measurements from patent US8796241B2, “Therapy of tumors and infectious agents deficient in methylthioadenosine phosphorylase” (priority 2007, dated 2014).
# Experiments:
# MTAP(+) HF cells = assay: Clonogenic assay of HF cells; type: cell-based, human; conditions: 30 μM 5′-dAdo, 2 μM F-Ade, 3 days
# Experimental: (§1) Cell viability of adherent cell types was measured by clonogenic assay as follows: after releasing cells with trypsin and removing a portion of the cell suspension for Coulter counting, the remainder of the cell suspension was plated in serial dilutions in growth medium, without drugs. After a period sufficient for clones to reach a size visible by eye (usually 2 to 3 weeks), clones were stained with crystal violet in a saline/methanol solution. Dishes that had fewer than 100 clones were deemed suitable for counting. From these counts and from the dilution factors, the approximate number of viable cells, in the parent treatment dishes, was calculated. […] In clonogenic assays, clone size was often variable, especially after treatment with toxic drugs. Moreover, many of the very small clones may have arisen from cells detached during the weeks of incubation. […] Cloning efficiency for healthy, growing A549 cells was about 50%; for HF cells, efficiency was quite variable, ranging from 25 to 75% (perhaps because the HF cell stock varied, from experiment to experiment, in passage number).
# • B. F-Ade was added to cultures of MTAP(+) HF cells, with or without 5′-dAdo, for 3 days. Cultures were then trypsinized and serially diluted for clonogenic assay. • Initial number of viable cells per dish: 45,000 • Viable cells after 3 days shown below:
# • HF cells were plated, and after they had adhered to the substrate, medium was changed to methionine-free medium, with 10% dialyzed serum. • Initial Coulter count: 73,000*; viable cells: 88,000 • After 3 days in methionine-free medium, with or without L-ethionine (Eth) or MTA: […]
# MTAP(−) A549 cells = assay: Clonogenic assay of A549 cells; type: cell-based, human
# Experimental: as §1
# A549 cells were incubated for 4 days with additions shown below, and viable cells measured by clonogenic assay. (Results shown are approximate; see Methods) Cell count in dish at start: 40,000
# • MTAP(−) A549 lung tumor cell cultures were treated with F-Ade, with or without MTA, 5′-dAdo, or adenine (Ade), for three days. Coulter counts of cells, and viable cells as determined by clonogenic assay, are shown below: • Initial cell number: 10,340*
# • A549 cell cultures were treated with DAP, with or without 5′-dAdo or adenine, for three days. After trypsinization, one-fourth of the cell suspension was counted, and raw data is shown below, with duplicate counts for each sample. The cell suspension was also serially diluted for clonogenic assay. • Counts at start of experiment: Dish one: 36,480; 39,160; Dish two: 52,680; 51,360. • Initial viable cells by clonogenic assay: 180,000.
# • Cell cultures were treated with MTX or alanosine for one day. DAP was then added and 3 days later, cells were trypsinized and serially diluted for clonogenic assay. Results are shown below: • Initial viable cells: 146,000
# • A549 cells were plated, and after they had adhered to the substrate, medium was changed to methionine-free medium with 10% dialyzed serum. L-ethionine (Eth) and MTA were added, and after 4 days, cell cultures were trypsinized and serially diluted for clonogenic assay. • Initial number of viable cells: 160,000*
# • A549 cultures were treated with 6-thioguanine (TG) or 2,6,diaminopurine (DAP), or both, for 3 days. • Initial viable cells: 275,000 • After 3 days: […]
# [1] = tested on: MTAP(+) HT29 colon carcinoma cells; assay: Coulter counts of HT29 cultures; type: cell-based, human; conditions: Example 12
# Experimental: For adherent cell types, cell numbers were determined periodically by releasing cells with trypsin (dead cells that were no longer adherent were removed by two prior rinses of the culture dish) and placing a portion of the resulting cell suspension in a Coulter counter. For cell types that grow in suspension, portions of the culture were counted directly, without trypsin treatment. Coulter counts of cells from each dish were done twice, and almost all experiments were done in duplicate. In the presentation of results, raw data for Coulter counts is given in some cases, while in others, counts have been rounded off to two to three significant figures. (Background Coulter counts—i.e., counts of diluent alone—were insignificant.)
# • 5′-dAdo was added to cultures of MTAP(+) HT29 colon carcinoma cells for one day. 5-fluorouracil (FU) was then added and 4 days later cultures were trypsinized, thoroughly dispersed into mostly single cells by vigorous pipetting, and counted. • Initial Coulter count at time of addition of FU: 46,000
# [2] = tested on: MTAP(+) hematopoietic cell progenitors; assay: Assay of colony-forming cells from mouse bone marrow; type: cell-based; conditions: 5′-dAdo at doses as low as 15 μM
# From the text: Method: The procedure for assay of colony-forming cells from mouse bone marrow was similar to methods described in the literature (see e.g., B. A. Teicher et al, Cancer Research, 47:513-518, 1987). In brief, cells were flushed from the femurs of Swiss mice, counted, and seeded into six-well tissue culture plates with supplemented McCoy's 5A medium, 15% FBS, 10 to 20% L929-cell conditioned medium as a source of colony-stimulating activity (L929 is MTAP-negative), 0.3% agar, and penicillin/streptomycin (op. cit. B. A. Teicher et al). Cells were seeded at two different densities: 50,000 and 250,000 cells per well. Control wells contained either no drugs, or adenine at 15 or 30 μM, or 5′-deoxyadenosine (5′-dAdo) at 15, 30, or 45 μM. Treatment wells contained 6-methylpurine (MeP) at 5 or 15 μM, 5′-deoxyadenosine (5′-dAdo) at 15 or 30 μM, and adenine at 15 or 30 μM, in various combinations. After eight days of incubation at 37° C. in a humidified 5% CO2 atmosphere, wells were fixed by the addition of 1 ml of 5% glutaraldehyde. Photographs were taken of a randomly selected portion of each well, as viewed (at fixed magnification) through a Nikon inverted microscope equipped with a camera.
# [3] = tested on: MTAP-positive cells and cells lines; assay: Applicants' tissue culture experiments on protection of MTAP-positive cells (summary statements); type: cell-based, human; mouse
# mice = conditions: high doses; cited from earlier work
compound,measurement,setting,value
"C[C@H]1O[C@@H](n2cnc3c(N)ncnc32)[C@H](O)[C@@H]1O [5′-dAdo, 5′-deoxyadenosine]",blocking of F-Ade toxicity in HF cells,MTAP(+) HF cells,effectively blocks
same,blocking of MeP toxicity in A549 cells,MTAP(−) A549 cells; 10 μM MeP,not
same,blocking of DAP toxicity in A549 cells,"MTAP(−) A549 cells; 100 μM DAP, Example 7",did not block
same,blocking of F-Ade toxicity in A549 cells,MTAP(−) A549 cells; 1 to 2 μM F-Ade,not
same,blocking of FU toxicity in MTAP(+) HT29 cells,[1],blocked
same,blocking of MeP toxicity to murine hematopoietic progenitors,[2],effectively blocked
same,protection from highly toxic doses of adenine and/or methionine competitive antagonists,"[3]; HF, mouse hematopoietic progenitors, HT-29, ML-1, EJ, T-47D, ZR-75-1, MDA-MB-468",provide protection
same,"blocking of toxicity of very high doses of 2,6-diaminopurine, 2-fluoroadenine, 6-methylpurine",[3]; normal human and mouse cells,effectively blocked
same,toxicity in vivo,mice,non-toxic
